According to patent US20110046220A1, “PARABEN COMPOUNDS” (CENTRE NATIONAL DE LA RECHERCHE SCIENTIFIQUE, priority 2007, published 2011):
Values after ≈ are worked out from the molar mass of the structure shown. Values joined by “and” are separate entries in the source; they are usually repeats but may differ in a detail not shown here. Identical values can stand only once. Like-named read-outs stand apart in the source and are kept apart here.

Assays:
Type in all cases: cell-based
[1] = tested on: Staphylococcus aureus (ATCC 6538); experiment: MBC determination by subculturing wells with no visible growth onto agar plates; details: for MBC/MIC ratio / bactericidal or bacteriostatic effect (from MBC/MIC ratio): S. aureus; for MBC: Staphylococcus aureus, ATCC6538
Protocol: MBCs were determined to estimate bacterial survival in wells with no visible growth after 24 h by subculturing onto agar plates to count the number of colony-forming-units (CFU/mL).
In order to determine whether the growth inhibition observed against S. aureus was relevant either of a bactericidal or a bacteriostatic effect, the ratio MBC/MIC was calculated.

[2] = tested on: Staphylococcus aureus strain ATCC 6538; experiment: MIC determination by twofold dilution in microplates against Staphylococcus aureus; details: for MIC: Staphylococcus aureus
Protocol: Antimicrobial activity was tested by inhibition of growth of Gram positive bacteria Staphylococcus aureus strain ATCC 6538. All extracts and bacterial isolates from the sponge were screened for this antibacterial activity. Extracts and bacterial strains were also tested against gram negative gamma-proteobacteria (including Vibrios) and alpha-proteobacteria (Rhodobacterales), against Gram positive Bacillales (including Bacillus sp.) and against the yeast Candida albicans.
MICs of each of the compounds 1-9 according to the invention and of commercial methyl- and propyl parabens of the prior art were determined by a twofold dilution method from an initial 100 μg/mL concentration. […] Microplates were incubated for 24 hours at 30° C. with shaking (500 rpm) and optical density at 600 nm was read to estimate bacterial growth. The methyl- and propyl parabens of the prior art were obtained from the company Interchimie in Bobigny, France. […]
The results are reported in the following table 3 in which the MIC is reported in μg/ml and expressed, as in table 1, as the interval a-b, where a is the highest concentration tested at which microorganism are growing and b the lowest concentration that causes 100% growth inhibition.

[3] = tested on: Microbulbifer sp. strain L4-N2; experiment: Antibiotic resistance/sensitivity of bacteria of the strain L4-N2; details: kanamycine 30UI; ceftazidime 30 μg
Protocol: Bacteria of the strain L4-N2 are gram negative, aerobic, rod-shaped, and approximately 1 μm wide by 5 to 7 μm long. They form smooth, convex and mucoid colonies, and produce a non-diffusible brown pigment. They use glucose and display beta-galactosidase, catalase, and gelatinase activities. They are resistant to ampicillin, penicillin and oxacillin and sensitive to kanamycine (30UI) and ceftazidime (30 μg).

[4] = S. aureus ATCC 6538, lowest concentration yielding colony counts <0.1% of the initial inoculum, read-out: MBC
[5] = ATCC6538, S. aureus ATCC 6538, 24 hours at 30° C., interval a-b (a highest concentration with growth, b lowest with 100% growth inhibition), triplicate, read-out: MIC
[6] = ATCC6538, S. aureus ATCC 6538, 24 hours at 30° C., interval a-b, triplicate, read-out: MIC

| Compound | MBC/MIC ratio [1] | MIC [2, 5] [µM] | MIC [2, 6] [mg/L] | bactericidal or bacteriostatic effect (from MBC/MIC ratio) [1] | MBC [1, 4] [mg/L] | resistance or sensitivity of strain L4-N2 bacteria to the antibiotic [3] | factor of enhancement of antimicrobial activity by unsaturation of the alkyl chain (compound 9 vs compound 8) ([2]; S. aureus, compared MIC values) | MBC [1] [mg/L] | MIC ([2]; ATCC6538, 24 h) |
| --- | --- | --- | --- | --- | --- | --- | --- | --- | --- |
| Cc1onc(-c2ccccc2)c1C(=O)N[C@@H]1C(=O)N2[C@@H]1SC(C)(C)[C@@H]2C(=O)O [oxacillin] |  |  |  |  |  | resistant |  |  |  |
| CCCCOC(=O)c1ccc(O)cc1 [Compound 2, 4-Hydroxy-benzoic acid butyl ester] | >16 |  |  |  |  |  |  | > 100 | 129 µM to 258 µM and 25 µg/mL to 50 µg/mL |
| NC[C@H]1O[C@H](O[C@H]2[C@H](O)[C@@H](O[C@H]3O[C@H](CO)[C@@H](O)[C@H](N)[C@H]3O)[C@H](N)C[C@@H]2N)[C@H](O)[C@@H](O)[C@@H]1O [kanamycine] |  |  |  |  |  | sensitive |  |  |  |
| CCOC(=O)c1ccc(O)cc1 [Compound 1, 4-Hydroxy-benzoic acid ethyl ester] | >16 | > 602 | > 100 |  | > 100 |  |  |  |  |
| CC(C)(O/N=C(\C(=O)N[C@@H]1C(=O)N2C(C(=O)[O-])=C(C[n+]3ccccc3)CS[C@H]12)c1csc(N)n1)C(=O)O [ceftazidime] |  |  |  |  |  | sensitive |  |  |  |
| CC1(C)S[C@@H]2[C@H](NC(=O)[C@H](N)c3ccccc3)C(=O)N2[C@H]1C(=O)O [ampicillin] |  |  |  |  |  | resistant |  |  |  |
| CCCCCCCC(O)CCOC(=O)c1ccc(O)cc1 (stereo not shown) [Compound 5, 4-Hydroxy-benzoic acid 3-hydroxy-decyl ester] | >16 | 85 to 170 | 25 to 50 |  | > 100 |  |  |  |  |
| penicillin |  |  |  |  |  | resistant |  |  |  |

Second part, led by results:

| MBC/MIC ratio [1] | MIC [2, 5] [µM] | MIC [2, 6] [mg/L] | Compound | bactericidal or bacteriostatic effect (from MBC/MIC ratio) [1] | MBC [1, 4] [mg/L] | resistance or sensitivity of strain L4-N2 bacteria to the antibiotic [3] | factor of enhancement of antimicrobial activity by unsaturation of the alkyl chain (compound 9 vs compound 8) ([2]; S. aureus, compared MIC values) | MBC [1] [mg/L] | MIC ([2]; ATCC6538, 24 h) |
| --- | --- | --- | --- | --- | --- | --- | --- | --- | --- |
| 2 | 40.5 to 81.1 | 12.5 to 25 | CC(C)CCCCCC(O)CCOC(=O)c1ccc(O)cc1 (stereo not shown) [Compound 7] | bactericidal (If MBC/MIC is less than 4, the compound is bactericidal) | 25 to 50 (≈ 81.1 to 162 µM) |  |  |  |  |
| 2 | 100 to 200 | 25 to 50 | CCCCCCCCOC(=O)c1ccc(O)cc1 [Compound 3, 4-Hydroxy-benzoic acid octyl ester] | bactericidal (If MBC/MIC is less than 4, the compound is bactericidal) | 50 to 100 (≈ 200 to 399 µM) |  |  |  |  |
| 8 | 20.5 to 41.1 | 6.25 to 12.5 | CCCCCC/C=C/CCCCOC(=O)c1ccc(O)cc1 [Compound 9, 4-Hydroxy-benzoic acid dodec-5-enyl ester] | bacteriostatic (if MBC/MIC is between 8 and 16 and above 16, the compound is bacteriostatic) | 50 to 100 (≈ 164 to 328 µM) |  | 4 |  |  |
| 2 | 42.8 to 85.6 | 12.5 to 25 | CC(C)CCCCCCCCOC(=O)c1ccc(O)cc1 [Compound 6] | bactericidal (If MBC/MIC is less than 4, the compound is bactericidal) | 25 to 50 (≈ 85.5 to 171 µM) |  |  |  |  |
| 16 | 2.8 to 5.6 | 0.78 to 1.56 | CCCCCCCCCCOC(=O)c1ccc(O)cc1 [Compound 4, 4-Hydroxy-benzoic acid decyl ester] | bacteriostatic (if MBC/MIC is between 8 and 16 and above 16, the compound is bacteriostatic) | 12.5 to 25 (≈ 44.9 to 89.8 µM) |  |  |  |  |
|  | 278 to 556 | 50 to 100 | CCCOC(=O)c1ccc(O)cc1 [Propyl paraben, reference compound] |  | > 100 |  |  |  |  |
| >16 | 81.6 to 163 | 25 to 50 | CCCCCCCCCCCCOC(=O)c1ccc(O)cc1 [Compound 8, 4-Hydroxy-benzoic acid dodecyl ester] |  | > 100 |  |  |  |  |
|  | 329 to 658 | 50 to 100 | COC(=O)c1ccc(O)cc1 [Methyl paraben, reference compound] |  | > 100 |  |  |  |  |
